Laboratory results as given in paper PMC10331583, “Control of fibrosis with enhanced safety via asymmetric inhibition of prolyl‐tRNA synthetase 1” (EMBO Molecular Medicine, 2023).
Values joined by “and” are separate entries in the source; they are usually repeats but may differ in a detail not shown here. Equal values may be shown once. Read-outs that look alike come from different tables or passages of the source.

Experiments:
WI‐26 VA4 cells [1] = test: CellTiter‐Glo assay (cytotoxicity)
Description: (§1) After 24 h, the cells were incubated with various concentrations of compounds for 48 h. The level of ATP as a measure of cell viability was determined using a CellTiter‐Glo® luminescent cell viability assay kit (Promega, G7571) following the manufacturer's instructions.
(§2) WI‐26 VA4 cells were seeded at 1.2 × 10^4 cells/well in 96‐well white plates. After 24 h, the cells were incubated with the indicated concentrations of compounds for 72 h. The viability was determined as described above.

[2] = CellTiter‐Glo assay (cytotoxicity); conditions: human, WI-26 VA4 cells
Description: as §1, §2

WI‐26 VA4 cells [3] = test: Collagen ELISA (secreted pro‐collagen I); conditions: for IC50 / activity at 0.01 µM / activity at 300 µM / activity at 0.03 µM / activity at 0.1 µM / activity at 0.3 µM / activity at 1 µM / activity at 3 µM / activity at 10 µM / activity at 30 µM / activity at 100 µM: Homo sapiens
[4] = log(inhibitor) vs. response, variable slope (four parameters), concentration in nM

O[C@H]1CCCN[C@@H]1CCCn1cnc2c(Cl)c(Cl)ccc21 [DWN12088]
activity at 30 µM (WI‐26 VA4 cells [1]; Homo sapiens, WI26VA4, read-out: CellTiter-Glo % of control, 30000 nM, Experiment #2, replicates): 38.4%
activity at 100 µM (WI‐26 VA4 cells [1]; Homo sapiens, WI26VA4, read-out: CellTiter-Glo % of control, 100000 nM, Experiment #1, replicates): 26.4%
activity at 100 µM (WI‐26 VA4 cells [1]; Homo sapiens, WI26VA4, read-out: CellTiter-Glo % of control, 100000 nM, Experiment #2, replicates): 20.9%
activity at 0.01 µM (WI‐26 VA4 cells [1]; Homo sapiens, WI26VA4, read-out: CellTiter-Glo % of control, average, 10 nM, average): 104%
activity at 0.03 µM (WI‐26 VA4 cells [1]; Homo sapiens, WI26VA4, read-out: CellTiter-Glo % of control, average, 30 nM, average): 104%
activity at 0.1 µM (WI‐26 VA4 cells [1]; Homo sapiens, WI26VA4, read-out: CellTiter-Glo % of control, average, 100 nM, average): 109%
activity at 0.3 µM (WI‐26 VA4 cells [1]; Homo sapiens, WI26VA4, read-out: CellTiter-Glo % of control, average, 300 nM, average): 108%
activity at 1 µM (WI‐26 VA4 cells [1]; Homo sapiens, WI26VA4, read-out: CellTiter-Glo % of control, average, 1000 nM, average): 102%
activity at 3 µM (WI‐26 VA4 cells [1]; Homo sapiens, WI26VA4, read-out: CellTiter-Glo % of control, average, 3000 nM, average): 84.7%
activity at 10 µM (WI‐26 VA4 cells [1]; Homo sapiens, WI26VA4, read-out: CellTiter-Glo % of control, average, 10000 nM, average): 77.5%
activity at 30 µM (WI‐26 VA4 cells [1]; Homo sapiens, WI26VA4, read-out: CellTiter-Glo % of control, average, 30000 nM, average): 34.6%
activity at 100 µM (WI‐26 VA4 cells [1]; Homo sapiens, WI26VA4, read-out: CellTiter-Glo % of control, average, 100000 nM, average): 22.4%
activity at 300 µM (WI‐26 VA4 cells [1]; Homo sapiens, WI26VA4, read-out: CellTiter-Glo % of control, average, 300000 nM, average): 1.88%
activity at 1000 µM (WI‐26 VA4 cells [1]; Homo sapiens, WI26VA4, read-out: CellTiter-Glo % of control, average, 1000000 nM, average): 0.11%
CellTiter-Glo LogIC50 (best-fit value) (WI‐26 VA4 cells [1]; [4]): 4.308
CC50 at 72 h ([2]; CC50 (CellTiter-Glo), 72 h (Fig 5B)): 20300 nM
CC50 at 72 h ([2]; CC50, 72 h (Fig 1B)): 20800 nM
Collagen, % of control (single replicates per experiment) (WI‐26 VA4 cells [3]; 10 nM, 0.01 µM): 101.76 % of control
Collagen, % of control (single replicates per experiment) (WI‐26 VA4 cells [3]; 30 nM, 0.03 µM): 120.03 % of control and 114.52 % of control and 91.73 % of control and 89.16 % of control and 97.48 % of control and 99.13 % of control and 133.18 % of control and 134.10 % of control
Collagen, % of control (single replicates per experiment) (WI‐26 VA4 cells [3]; 100 nM, 0.1 µM): 111.05 % of control and 113.92 % of control and 88.23 % of control and 93.03 % of control and 102.46 % of control and 102.99 % of control and 133.45 % of control and 119.32 % of control
Collagen, % of control (single replicates per experiment) (WI‐26 VA4 cells [3]; 300 nM, 0.3 µM): 97.76 % of control and 92.78 % of control and 92.20 % of control and 87.32 % of control and 95.43 % of control and 105.10 % of control and 105.64 % of control and 109.03 % of control
Collagen, % of control (single replicates per experiment) (WI‐26 VA4 cells [3]; 1000 nM, 1 µM): 75.49 % of control and 75.29 % of control and 77.13 % of control and 68.65 % of control and 66.58 % of control and 66.40 % of control and 103.27 % of control and 103.19 % of control
Collagen, % of control (single replicates per experiment) (WI‐26 VA4 cells [3]; 3000 nM, 3 µM): 24.90 % of control and 21.92 % of control
TI (CC50/IC50 for collagen level) (WI‐26 VA4 cells [3]; Fig 1C): 10.29
CC50/collagen IC50 (WI‐26 VA4 cells [3]; Fig 5E): 10.07
IC50 (WI‐26 VA4 cells [3]; WI26VA4, 72 h, read-out: IC50 for collagen level): 2020 nM
IC50 (WI‐26 VA4 cells [3]; WI26VA4, read-out: Collagen IC50 (best-fit value)): 2020 nM
activity at 0.01 µM (WI‐26 VA4 cells [3]; WI26VA4, read-out: Collagen, % of control (single replicates per experiment), 10 nM): 101%
activity at 300 µM (WI‐26 VA4 cells [3]; WI26VA4, read-out: Collagen, % of control (single replicates per experiment), 300000 nM): 3.81%
activity at 0.01 µM (WI‐26 VA4 cells [3]; WI26VA4, read-out: Collagen, % of control, average, 10 nM, average): 101%
activity at 0.03 µM (WI‐26 VA4 cells [3]; WI26VA4, read-out: Collagen, % of control, average, 30 nM, average): 103%
activity at 0.1 µM (WI‐26 VA4 cells [3]; WI26VA4, read-out: Collagen, % of control, average, 100 nM, average): 105%
activity at 0.3 µM (WI‐26 VA4 cells [3]; WI26VA4, read-out: Collagen, % of control, average, 300 nM, average): 96.4%
activity at 1 µM (WI‐26 VA4 cells [3]; WI26VA4, read-out: Collagen, % of control, average, 1000 nM, average): 78.8%
activity at 3 µM (WI‐26 VA4 cells [3]; WI26VA4, read-out: Collagen, % of control, average, 3000 nM, average): 37.7%
activity at 10 µM (WI‐26 VA4 cells [3]; WI26VA4, read-out: Collagen, % of control, average, 10000 nM, average): 15%
activity at 30 µM (WI‐26 VA4 cells [3]; WI26VA4, read-out: Collagen, % of control, average, 30000 nM, average): 5.52%
activity at 100 µM (WI‐26 VA4 cells [3]; WI26VA4, read-out: Collagen, % of control, average, 100000 nM, average): 4.05%
activity at 300 µM (WI‐26 VA4 cells [3]; WI26VA4, read-out: Collagen, % of control, average, 300000 nM, average): 4.51%
activity at 0.03 µM (WI‐26 VA4 cells [3]; WI26VA4, read-out: Efficacy, % of control, average, 30 nM): 102%
activity at 0.1 µM (WI‐26 VA4 cells [3]; WI26VA4, read-out: Efficacy, % of control, average, 100 nM): 99.4%
activity at 0.3 µM (WI‐26 VA4 cells [3]; WI26VA4, read-out: Efficacy, % of control, average, 300 nM): 107%
activity at 1 µM (WI‐26 VA4 cells [3]; WI26VA4, read-out: Efficacy, % of control, average, 1000 nM): 82.3%
activity at 3 µM (WI‐26 VA4 cells [3]; WI26VA4, read-out: Efficacy, % of control, average, 3000 nM): 35.4%
activity at 10 µM (WI‐26 VA4 cells [3]; WI26VA4, read-out: Efficacy, % of control, average, 10000 nM): 11.9%
activity at 30 µM (WI‐26 VA4 cells [3]; WI26VA4, read-out: Efficacy, % of control, average, 30000 nM): 3.71%
activity at 100 µM (WI‐26 VA4 cells [3]; WI26VA4, read-out: Efficacy, % of control, average, 100000 nM): 2.52%
activity at 0.03 µM (WI‐26 VA4 cells [3]; WI26VA4, read-out: Efficacy, % of control, single replicate, 30 nM): 113%
activity at 0.1 µM (WI‐26 VA4 cells [3]; WI26VA4, read-out: Efficacy, % of control, single replicate, 100 nM): 108%
activity at 0.3 µM (WI‐26 VA4 cells [3]; WI26VA4, read-out: Efficacy, % of control, single replicate, 300 nM): 114%
activity at 3 µM (WI‐26 VA4 cells [3]; WI26VA4, read-out: Efficacy, % of control, single replicate, 3000 nM): 39%
activity at 10 µM (WI‐26 VA4 cells [3]; WI26VA4, read-out: Efficacy, % of control, single replicate, 10000 nM): 10.1%
activity at 30 µM (WI‐26 VA4 cells [3]; WI26VA4, read-out: Efficacy, % of control, single replicate, 30000 nM): 3.03%
IC50 (WI‐26 VA4 cells [3]; WI26VA4, read-out: IC50 for collagen level): 2000 nM
Collagen HillSlope (best-fit value) (WI‐26 VA4 cells [3]; log(inhibitor) vs. response, variable slope (four parameters)): -1.329
Collagen LogIC50 (best-fit value) (WI‐26 VA4 cells [3]; [4]): 3.306
Relative (CC50)/(collagen IC50) (WI‐26 VA4 cells [3]; relative to HF, Fig 5E): 3.01
